Experimental findings from patent US20250179059A1 (The Regents of the University of California, priority 2021, published 2025) are described below.

The structures appear in SMILES notation. pIC50: −log10 of the molar value. Read-outs that look alike come from different tables or passages of the source.

Test [1] deals with human SKM-1 acute myeloid leukemia cells. In words: SKM-1 antiproliferation cell-based assay (ATPlite). The note with it: Homo sapiens. In outline:
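Log-phase cells in RPMI 1640/15% FBS were seeded at 34722 cells/mL and exposed for 4 days to nine-concentration DMSO serial dilutions in triplicate. Viability was read as ATP luminescence (ATPlite 1step), and IC50 values came from variable-slope non-linear regression.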
A general note: ATP-based viability assays read luminescence as a measure of living cells.

In test [2] the target is T1, human BRD4 bromodomain II (Homo sapiens, UniProt O60885).
T1 construct: human BRD4 bromodomain II [based on Genbank NM_058243, residues 349-460]; host or cells: E. coli
Briefly: Bromodomain binding assay (AlphaScreen), BRD4 BDII. In outline: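 E. coli-expressed N-terminal His6-tagged human BRD4 BDII (residues 349-460) or BDI (residues 44-170) was preincubated 30 min at room temperature with compound (10-point, 3-fold) in pH 7.5 HEPES buffer, 1% DMSO. Displacement of biotinylated tetra-acetylated H4 1-21 peptide was read by AlphaScreen, and IC50 came from curve fitting.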
On the technique in general: In Alpha technology, singlet oxygen from a donor bead excites a nearby acceptor bead.

[3] abbreviates: SKM-1, 96 h, SKM-1 antiproliferation assay, 4 days, Table C2.
Where [4] appears, read: AlphaScreen assay, Table C2, read-out: BRD4 BDII IC50.
[5] abbreviates: SKM-1, SKM-1 antiproliferation assay.
Setting [6] is: BRD4 BDII AlphaScreen assay, read-out: BRD4 BD2 IC50.

Broadly, the GI50 is the concentration giving 50% growth inhibition. A higher GI50 goes with lower sensitivity of the cells. Broadly, the pIC50 is the negative decadic logarithm of the IC50, by convention in mol/L. In test [1] (setting [3]), `Cc1ncc(-c2cc(F)cc(-c3ccc(-n4ccn(C)c4=O)c(Cl)c3)c2O)cc1N1CC(C)(O)C1` [Example 843, 1-(3-chloro-5′-fluoro-2′-hydroxy-3′-(5-(3-hydroxy-3-methylazetidin-1-yl)-6-methylpyridin-3-yl)-[1,1′-biphenyl]-4-yl)-3-methyl-1H-imidazol-2(3H)-one] gave a GI50 of 0.3 to 30 nM. Besides, the pIC50 in test [2] (setting [4]) is 9.00 to 11.00.
Compound `Cn1ccn(-c2ccc(-c3cc(F)cc(-c4cnc(N)c(N5CCN(C(C)(C)C)CC5)c4)c3O)cc2Cl)c1=O` [Example 914, 1-(3′-(6-amino-5-(4-(tert-butyl)piperazin-1-yl)pyridin-3-yl)-3-chloro-5′-fluoro-2′-hydroxy-[1,1′-biphenyl]-4-yl)-3-methyl-1H-imidazol-2(3H)-one] registered a GI50 in test [1] (setting [5]) of 0.3 to 30 nM. Also, in test [2] (setting [6]), the pIC50 was 8.00 to 9.00.
The compound `C[C@@H]1CN(c2cncc(-c3cc(F)cc(-c4ccc(-n5ccn(C)c5=O)c(Cl)c4)c3O)c2)CCN1` [Example 467, (R)-1-(3-chloro-5′-fluoro-2′-hydroxy-3′-(5-(3-methylpiperazin-1-yl)pyridin-3-yl)-[1,1′-biphenyl]-4-yl)-3-methyl-1H-imidazol-2(3H)-one] returned a GI50 in test [1] (setting [3]) of 0.3 to 30 nM. For the same compound, the pIC50 in test [2] (setting [4]) is 9.00 to 11.00.
For `Cn1ccn(-c2ccc(-c3cc(F)cc(-c4cnc(Cl)c(N5CCN(C(C)(C)C)CC5)c4)c3O)cc2Cl)c1=O` [Example 789, 1-(3′-(5-(4-(tert-butyl)piperazin-1-yl)-6-chloropyridin-3-yl)-3-chloro-5′-fluoro-2′-hydroxy-[1,1′-biphenyl]-4-yl)-3-methyl-1H-imidazol-2(3H)-one], in that order: 0.3 to 30 nM and 8.00 to 9.00.
For `Cn1ccn(-c2ccc(-c3cc(F)cc(-c4cc(N5CC[C@H](N)C5)c5cn[nH]c5c4)c3O)cc2Cl)c1=O` [Example 558, (S)-1-(3′-(4-(3-aminopyrrolidin-1-yl)-1H-indazol-6-yl)-3-chloro-5′-fluoro-2′-hydroxy-[1,1′-biphenyl]-4-yl)-3-methyl-1H-imidazol-2(3H)-one] the same measures were 0.3 to 30 nM and 8.00 to 9.00.
`Cn1cc(-c2cc(F)cc(-c3ccc(-n4ccn(C)c4=O)c(Cl)c3)c2O)cc(N2CC[C@H](N)C2)c1=O` [Example 422, (S)-3-(3-aminopyrrolidin-1-yl)-5-(3′-chloro-5-fluoro-2-hydroxy-4′-(3-methyl-2-oxo-2,3-dihydro-1H-imidazol-1-yl)-[1,1′-biphenyl]-3-yl)-1-methylpyridin-2(1H)-one] returned a GI50 in test [1] (setting [3]) of 0.3 to 30 nM. Further, the pIC50 in test [2] (setting [4]) was 9.00 to 11.00.
For `[2H]C([2H])([2H])n1ccn(-c2ccc(-c3cc(F)cc(-c4ccnc(N5CCNCC5)c4)c3O)cc2Cl)c1=O` [Example 409, 1-(3-chloro-5′-fluoro-2′-hydroxy-3′-(2-(piperazin-1-yl)pyridin-4-yl)-[1,1′-biphenyl]-4-yl)-3-(trideuteromethyl)-1H-imidazol-2(3H)-one] the same measures were 0.3 to 30 nM and 8.00 to 9.00.
In turn, `CNc1ncc(-c2cc(F)cc(-c3ccc(-n4ccn(C)c4=O)c(Cl)c3)c2O)cc1N1CCN(C(C)(C)C)CC1` [Example 923, 1-(3′-(5-(4-(tert-Butyl)piperazin-1-yl)-6-(methylamino)pyridin-3-yl)-3-chloro-5′-fluoro-2′-hydroxy-[1,1′-biphenyl]-4-yl)-3-methyl-1H-imidazol-2(3H)-one] came in with a GI50 in test [1] (setting [5]) of 0.3 to 30 nM. In addition, the pIC50 in test [2] (setting [6]) was 9.00 to 11.00.
`Cn1ccn(-c2ccc(-c3cc(F)cc(-c4ccnc(-c5cccnc5)c4)c3O)cc2Cl)c1=O` [Example 480, 1−(3′-([2,3′-bipyridin]-4-yl)-3-chloro-5′-fluoro-2′-hydroxy-[1,1′-biphenyl]-4-yl)-3-methyl-1H-imidazol-2(3H)-one] had a GI50 in test [1] (setting [3]) of 300 to 3000 nM. In test [2] (setting [4]), the pIC50 was 8.00 to 9.00.
For `CN1CCN(c2ccc(-c3cc(F)cc(-c4cc(N5CCNCC5)c(=O)n(C)c4)c3O)cc2Cl)C1=O` [Example 372, 5-(3′-chloro-5-fluoro-2-hydroxy-4′-(3-methyl-2-oxoimidazolidin-1-yl)-[1,1′-biphenyl]-3-yl)-1-methyl-3-(piperazin-1-yl)pyridin-2(1H)-one], in that order: 30 to 300 nM and 8.00 to 9.00.
For `CC(C)N1CCN(c2cc(-c3cc(F)cc(-c4ccc(-n5ccn(C)c5=O)c(Cl)c4)c3O)cnc2C(F)(F)F)CC1` [Example 804, 1-(3-chloro-5′-fluoro-2′-hydroxy-3′-(5-(4-isopropylpiperazin-1-yl)-6-(trifluoromethyl)pyridin-3-yl)-[1,1′-biphenyl]-4-yl)-3-methyl-1H-imidazol-2(3H)-one] the same measures were 0.3 to 30 nM and 8.00 to 9.00.
In the case of `Cc1cc(-c2ccc(-n3ccn(C)c3=O)c(Cl)c2)c(O)c(-c2cc(N3CCN[C@H](C)C3)c3cn[nH]c3c2)c1` [Example 585, (R)-1-(3-chloro-2′-hydroxy-5′-methyl-3′-(4-(3-methylpiperazin-1-yl)-1H-indazol-6-yl)-[1,1′-biphenyl]-4-yl)-3-methyl-1H-imidazol-2(3H)-one], the GI50 in test [1] (setting [3]) was in the range of 0.3 to 30 nM. Further, the pIC50 in test [2] (setting [4]) is 8.00 to 9.00.
For `Cn1ccn(-c2ccc(-c3cc(F)cc(-c4ccnc(N5CCC6(CCO6)C5)c4)c3O)cc2Cl)c1=O` (stereo not shown) [Example 674, 1-(3′-(2-(1-oxa-6-azaspiro[3.4]octan-6-yl)pyridin-4-yl)-3-chloro-5′-fluoro-2′-hydroxy-[1,1′-biphenyl]-4-yl)-3-methyl-1H-imidazol-2(3H)-one] the same measures were 30 to 300 nM and 9.00 to 11.00.
For `O=C1CCCN1c1ccc(-c2cccc(-c3ccnc(N4CC5(CNC5)C4)c3)c2O)cc1Cl` [Example 271, 1-(3′-(2-(2,6-diazaspiro[3.3]heptan-2-yl)pyridin-4-yl)-3-chloro-2′-hydroxy-[1,1′-biphenyl]-4-yl)pyrrolidin-2-one], in that order: 300 to 3000 nM and 7.00 to 8.00.
For `CC(=O)N(C)C1(c2cccc(-c3cc(F)cc(-c4ccc(-n5ccn(C)c5=O)c(Cl)c4)c3O)c2)CC1` [Example 794, N-(1-(3″-chloro-5′-fluoro-2′-hydroxy-4″-(3-methyl-2-oxo-2,3-dihydro-1H-imidazol-1-yl)-[1,1′:3′,1″-terphenyl]-3-yl)cyclopropyl)-N-methylacetamide] the same measures were 300 to 3000 nM and 7.00 to 8.00.
Compound `Cn1ccn(-c2ccc(-c3cc(F)cc(-c4cc(N5CCN(C(C)(C)C)CC5)n(C)c(=O)c4)c3O)cc2Cl)c1=O` [Example 735, 6-(4-(tert-butyl)piperazin-1-yl)-4-(3′-chloro-5-fluoro-2-hydroxy-4′-(3-methyl-2-oxo-2,3-dihydro-1H-imidazol-1-yl)-[1,1′-biphenyl]-3-yl)-1-methylpyridin-2(1H)-one] showed a GI50 in test [1] (setting [3]) of 0.3 to 30 nM. Besides, in test [2] (setting [4]), the pIC50 is 9.00 to 11.00.
In turn, `COc1cc(-c2ccc(-n3ccn(C)c3=O)c(Cl)c2)c(O)c(-c2cccc(N3CCN(C(C)(C)C)CC3)c2)n1` [Example 1028, 1-(4-(2-(3-(4-(tert-Butyl)piperazin-1-yl)phenyl)-3-hydroxy-6-methoxypyridin-4-yl)-2-chlorophenyl)-3-methyl-1H-imidazol-2(3H)-one] had a GI50 in test [1] (setting [5]) of 0.3 to 30 nM. In addition, the pIC50 in test [2] (setting [6]) is 8.00 to 9.00.
